# Values quoted from earlier work, collected in patent publication US20080175827A1, “PHOSPHOLIPASE C ZETA MEDIATED OOCYTE ACTIVATION, COMPOSITIONS FOR USE THEREIN, AND ASSAYS FOR DETECTING AND IDENTIFYING AGENTS FOR TREATING MALE INFERTILITY” (Michigan State University, priority 2006, published 2008).
# Legend:
# [1] = system: IP3R; conditions: mice; Jellerette et al. 2000
# [2] = system: bovine eggs; conditions: bovine oocytes; Malcuit and Fissore 2007
smiles,measurement,setting,value
[Cl-].[Cl-].[Sr+2] [strontium chloride],IP3R downregulation,[1],does not downregulate IP3R
same,[Ca2+]i oscillations,[2],does not induces [Ca^2+]i oscillations
